In patent US6153651A, “Ortho-substituted benzoylguanidines, process for their preparation, their use as a medicament or diagnostic, and medicament comprising them” (Hoechst Aktiengesellschaft, priority 1996, dated 2000):
Counter-ions that a name gives are not always drawn.

Molecular target: T1, rabbit erythrocyte Na^+ /H^+ exchanger (Oryctolagus cuniculus, UniProt P23791)
T1 construct: endogenous in cells; host or cells: rabbit erythrocytes (whole heparinized blood of cholesterol-fed New Zealand White rabbits, Ivanovas)
Assay: Inhibition of the rabbit erythrocyte Na^+ /H^+ exchanger (amiloride-sensitive Na^+ influx, flame photometry)
Format: cell-based, rabbit (New Zealand White)
Conditions: erythrocytes of rabbits fed 2% cholesterol for six weeks; pH 7.4, 37° C., hyperosmolar salt/sucrose medium
Excerpt: Inhibition of the rabbit erythrocyte Na^+ /H^+ exchanger New Zealand White rabbits (Ivanovas) were given a standard diet containing 2% cholesterol for six weeks in order to activate Na^+ /H^+ exchange and thus render it possible to use flame photometry to determine the influx of Na+into the erythrocytes by way of Na^+ /H^+ exchange. The blood was withdrawn from the aural arteries and rendered incoagulable by adding 25 IU of potassium heparin. A part of each sample was used for determining the hematocrit in duplicate by means of centrifugation. Aliquots of in each case 100 μl were used to measure the initial content of Na^+ in the erythrocytes.
In order to determine the amiloride-sensitive sodium influx, 100 μl of each blood sample were in each case incubated, at pH 7.4 and 37° C., in 5 ml of a hyperosmolar salt/sucrose medium (mmol/l: 140 NaCl, 3 KCl, 150 sucrose, 0.1 ouabain, 20 tris(hydroxymethyl)aminomethane). After that, the erythrocytes were washed three times with an ice cold solution of MgCl2 /ouabain (mmol/l: 112 MgCl2, 0.1 ouabain) and hemolyzed in 2.0 ml of distilled water. The intracellular content of sodium was determined by flame photometry.
The net influx of Na^+ was calculated from the difference between the initial sodium values and the sodium content of the erythrocytes after incubation. The amiloride-inhibitable sodium influx was obtained from the difference in the sodium content of the erythrocytes after incubation with and without 3×10^-4 mol/l amiloride. The same procedure was used in the case of the novel compounds.

T1 sequence (P23791 whole entry): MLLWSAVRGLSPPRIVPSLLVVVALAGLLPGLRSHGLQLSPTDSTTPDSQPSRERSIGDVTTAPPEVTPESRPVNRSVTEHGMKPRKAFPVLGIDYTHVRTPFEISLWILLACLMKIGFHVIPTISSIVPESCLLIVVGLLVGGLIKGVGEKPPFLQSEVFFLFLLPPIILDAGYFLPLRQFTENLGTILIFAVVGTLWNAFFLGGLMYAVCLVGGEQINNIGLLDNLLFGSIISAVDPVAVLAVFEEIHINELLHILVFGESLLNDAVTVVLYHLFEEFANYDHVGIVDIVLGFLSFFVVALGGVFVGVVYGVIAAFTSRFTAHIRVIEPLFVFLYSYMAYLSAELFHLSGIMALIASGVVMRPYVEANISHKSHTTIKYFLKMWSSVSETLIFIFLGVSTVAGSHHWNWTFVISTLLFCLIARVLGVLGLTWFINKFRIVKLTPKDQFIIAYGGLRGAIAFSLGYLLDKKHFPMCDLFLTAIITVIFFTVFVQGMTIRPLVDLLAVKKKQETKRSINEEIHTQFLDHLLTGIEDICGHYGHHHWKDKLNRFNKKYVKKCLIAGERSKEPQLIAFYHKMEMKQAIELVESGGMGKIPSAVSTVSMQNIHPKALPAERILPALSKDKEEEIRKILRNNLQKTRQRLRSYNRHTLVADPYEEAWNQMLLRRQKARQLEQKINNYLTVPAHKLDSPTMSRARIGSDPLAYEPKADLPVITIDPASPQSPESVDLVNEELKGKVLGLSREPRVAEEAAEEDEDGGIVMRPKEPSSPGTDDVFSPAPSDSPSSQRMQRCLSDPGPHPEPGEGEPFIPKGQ

Compared with COc1cc(C(F)(F)F)cc(C(=O)N=C(N)N)c1OC [Example 1, 2,3-Dimethoxy-5-trifluoromethylbenzoylguanidine hydrochloride], COc1c(I)cc(C(F)(F)F)cc1C(=O)N=C(N)N [Example 2, 2-Methoxy-3-iodo-5-trifluoromethylbenzoylguanidine hydrochloride] is 3.1-fold lower in IC50: 53 nM for the first, 17 nM for the second.

Compared with COc1cc(C)ccc1C(=O)N=C(N)N [Example 5, 2-Methoxy-4-methylbenzoylguanidine hydrochloride], COc1cc(OC)c(C(F)(F)F)cc1C(=O)N=C(N)N [Example 7, 2,4-Dimethoxy-5-trifluoromethylbenzoylguanidine hydrochloride] is lower in IC50: greater than 1000 nM for the first, 200 nM for the second.

In the case of COc1c(C(=O)N=C(N)N)cc(C(C)(C)C)cc1C(C)(C)C [Example 6, 3,5-Bis-tert-butyl-2-methoxybenzoylguanidine hydrochloride], the IC50 is reported as 1000 nM.
